From PMC13081163, “Discovery of a novel Nrf2 activator that modulates mitochondrial function in neurons by regulating DHRS3-Nrf2 interaction after ischemic stroke” (Theranostics, 2026) come the findings set out here.

One data set has as its system primary cortical neurons. The data set is described as follows: OGD/R damage in primary cortical neurons (CCK-8). It counts as cell-based, rat. As for the experimental part:
To mimic ischemic conditions in vitro, cells were washed with PBS and then cultured for 2.5 h at 37 °C in glucose-free medium under anaerobic conditions (5% hydrogen, 90% nitrogen, and 5% carbon dioxide). OGD process was terminated by transferring cells back to normal glucose-containing medium under normoxic conditions (5% CO₂, 37 °C) and maintained for 24 h.
In the administration group, cells were exposed for 12 h with Cpd.51 prior to OGD. OGD lasted for 2.5 h and the reperfusion lasted for 24 h before the experiment was concluded. Subsequently, cell viability was determined using the cell counting kit-8 (CCK-8, C0039, Beyotime, China). In the experiment to explore the treatment time window, the only difference was the timing of the Cpd.51 treatment, while all other procedures remained unchanged.
Rat primary neuronal cells collected from the cerebral cortices of embryos (embryonic day 18) from pregnant SD rats were isolated and cultured. In brief, the cerebral cortex tissue of […] was removed and cut into small pieces using ophthalmic curved shears. The tissue was repeatedly pipetted after the addition of preheated 0.25% Trypsin digestive solution (BR00083, ABclonal, China). Finally, twice the volume of the culture medium was added and terminated the digestion to complete the extraction of primary cortical cells. […]

In the next data set the test system is SH-SY5Y cells. As to the kind of experiment: Cytotoxicity in SH-SY5Y cells, 24 h incubation. It counts as cell-based. The following applies: Homo sapiens.
Data set [1] is described as follows: In vitro hepatic microsomal stability, overall statement. It counts as in vitro ADME, human, dog, rat. As for the experimental part: The liver microsomal incubation system comprised human, dog, or rat liver microsomal protein (0.75 mg/mL), nicotinamide adenine dinucleotide phosphate (NADPH) generation system, potassium phosphate buffer (0.1 M, pH 7.4), substrate, and inhibitor. The assay was conducted by first preparing a potassium phosphate buffer. Compounds and liver microsomes were then diluted and pre-incubated at 37 °C before initiating the reaction with NADPH. Aliquots were quenched with acetonitrile containing internal standard at specified time points. After sample processing (shaking and centrifugation), the supernatants were analyzed by LC-MS/MS to determine metabolic stability.

For data set [2], the target named is T1, Keap1 BTB domain (48-180) (Homo sapiens, UniProt Q14145).
T1 construct: truncated form of Keap1 (residues 48-180 and residues 48-149)
T1 sequence (Q14145 48-180): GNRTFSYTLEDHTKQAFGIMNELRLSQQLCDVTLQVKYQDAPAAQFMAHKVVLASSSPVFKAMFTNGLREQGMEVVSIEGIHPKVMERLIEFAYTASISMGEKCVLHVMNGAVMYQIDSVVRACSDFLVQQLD
As to the kind of experiment: SPR binding to truncated Keap1 (48-180). The following applies: read-out: KD, Keap1 BTB domain fragment. Here is the method: (§1) The binding affinity of Cpd.51 or Oma to Keap1 proteins were measured using a Biacore T200. The overall experimental procedures were based on previous reports, [28]. Human recombinant Keap1 proteins or truncated form of Keap1 (residues 48-180 and residues 48-149) were captured on a CM5 chip by a standard amine coupling procedure. Binding sensorgrams were recorded by injecting various concentrations of Cpd.51 over the immobilized proteins surface. The dissociation constant was obtained by globally fitting the data (to the 1:1 Langmuir binding model using the Biacore Insight evaluation software (Cytiva, Marlborough, MA, USA). Affinity tests for Cpd.51 and DHRS3 were also performed using the aforementioned method.

Data set [3] addresses Human recombinant Keap1 proteins (Homo sapiens, UniProt Q14145). The data set is described as follows: SPR binding to full-length Keap1. Further details: purchased Sinobiological ME18DE0203. The note with it: read-out: KD, full-length Keap1 protein. Here is the method: as §1
In general terms: Surface plasmon resonance follows binding to a sensor surface in real time, without labels.

The test system of data set [4] is ARE-luciferase reporter (Nrf2 activation), Hek-293T cells. The data set is described as follows: ARE-luciferase reporter gene assay. The following applies: Homo sapiens. It counts as cell-based. As for the experimental part:
The Hek-293T cells were cultured in 96-well plates 24 h before transfection with ARE-luciferase reporter plasmid (11548ES03, Yeasen, China) for 48 h according to the manufacturer's instructions. The Firefly luciferase activities was carried out 12 h after the drug treatment, as described by the manufacturer (11412ES81, Yeasen, China).
(Reporter assays use an easily measured gene product as a stand-in for the process of interest.)

The target in a further data set is T2, DHRS3-Nrf2 interaction (Homo sapiens, UniProt O75911).
T2 construct: purchased Ybio YB710012 (GST-Nrf2); YB765100 (DHRS3)
T2 sequence (O75911 1-302): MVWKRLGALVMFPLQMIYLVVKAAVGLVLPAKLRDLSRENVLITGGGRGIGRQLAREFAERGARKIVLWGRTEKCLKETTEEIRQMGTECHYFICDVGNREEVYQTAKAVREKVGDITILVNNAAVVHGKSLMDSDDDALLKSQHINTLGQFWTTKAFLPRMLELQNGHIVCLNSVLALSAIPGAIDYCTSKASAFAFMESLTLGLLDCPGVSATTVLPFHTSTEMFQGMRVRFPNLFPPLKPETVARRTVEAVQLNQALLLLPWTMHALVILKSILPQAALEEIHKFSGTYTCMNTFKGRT
As to the kind of experiment: GST pull-down of Nrf2 and DHRS3. The note with it: 100 nM, purified GST-tagged Nrf2 and DHRS3 proteins. It counts as binding. Here is the method:
GST-Nrf2 (YB710012, Ybio, China) or GST (Ag0040, Proteintech, China, as control) proteins were mixed with GST Resin (EA-IP-K008, Elabscience Biotechnology, China) for 2 h incubation on the shaker at 4 °C. Subsequently, both Cpd.51 (100 nM) and DHRS3 (YB765100, Ybio, China) were added to the mixture and rotated overnight at 4 °C [40]. Then, following the instructions, the sample buffer was added and heated to 100 °C for 10 min. After completing all steps, the mixture was centrifuged, and the supernatant was collected for western blotting analysis.

Another data set has as its target Nrf2 (Homo sapiens, UniProt Q14145). The data set is described as follows: Nrf2 nuclear translocation by immunofluorescence. It counts as cell-based. The following applies: 100 nM, SH-SY5Y cells and primary cortical neurons. Here is the method:
Immunostaining: cells were fixed with 4% paraformaldehyde for 20 min and then incubated with blocking solution (10% normal goat serum, 0.5% Triton X-100 in PBS) for 1 h at room temperature. Then, the samples were incubated overnight with primary antibodies: anti-Nrf2 (1:200, CST), anti-DHRS3 (1:300, Proteintech), anti-NeuN (1:500, Servicebio). When evaluating the extraction efficiency of primary cortical neurons, we performed co-staining with β-tubulin (1:200, Abcam) and Synaptophysin (1:300, ABclonal). After being washed with PBST three times, the samples were incubated with the corresponding secondary antibodies for 2 h in the dark. The nuclei were stained with DAPI (C1006-200mL, Beyotime, China) for 20 min. Finally, images were captured with a fluorescence microscope. Fluorescence integrated density was measured by ImageJ as previously described.

SMILES strings stand for the structures. pEC50, pIC50, pKd: −log10 of the molar value.

What is called pIC50 is the IC50 on a negative log10 scale, so that one unit is a factor of ten. Usually pKd stands for the negative decadic logarithm of the Kd, by convention in mol/L. The term pEC50 denotes the EC50 on a negative log10 scale, so that one unit is a factor of ten. A higher pEC50 goes with a low EC50.

Chain of Nrf2 (Q14145 whole entry): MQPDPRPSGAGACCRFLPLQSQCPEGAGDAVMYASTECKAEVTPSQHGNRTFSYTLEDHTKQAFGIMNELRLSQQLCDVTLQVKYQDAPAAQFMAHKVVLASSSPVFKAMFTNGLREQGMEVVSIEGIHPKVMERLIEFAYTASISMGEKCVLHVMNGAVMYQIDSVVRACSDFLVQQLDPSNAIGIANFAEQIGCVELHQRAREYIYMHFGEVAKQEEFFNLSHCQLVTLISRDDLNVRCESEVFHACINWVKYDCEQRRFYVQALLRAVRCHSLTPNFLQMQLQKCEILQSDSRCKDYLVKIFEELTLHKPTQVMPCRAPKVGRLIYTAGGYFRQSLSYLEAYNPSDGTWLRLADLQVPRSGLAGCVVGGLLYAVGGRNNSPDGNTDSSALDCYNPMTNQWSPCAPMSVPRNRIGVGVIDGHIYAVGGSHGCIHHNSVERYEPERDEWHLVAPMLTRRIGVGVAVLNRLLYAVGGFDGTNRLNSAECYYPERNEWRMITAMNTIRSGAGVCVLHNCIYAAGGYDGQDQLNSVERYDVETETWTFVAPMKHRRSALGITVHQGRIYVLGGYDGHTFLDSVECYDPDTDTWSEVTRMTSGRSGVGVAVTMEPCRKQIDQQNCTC
Chain of Nrf2 (Q16236 whole entry, further chain): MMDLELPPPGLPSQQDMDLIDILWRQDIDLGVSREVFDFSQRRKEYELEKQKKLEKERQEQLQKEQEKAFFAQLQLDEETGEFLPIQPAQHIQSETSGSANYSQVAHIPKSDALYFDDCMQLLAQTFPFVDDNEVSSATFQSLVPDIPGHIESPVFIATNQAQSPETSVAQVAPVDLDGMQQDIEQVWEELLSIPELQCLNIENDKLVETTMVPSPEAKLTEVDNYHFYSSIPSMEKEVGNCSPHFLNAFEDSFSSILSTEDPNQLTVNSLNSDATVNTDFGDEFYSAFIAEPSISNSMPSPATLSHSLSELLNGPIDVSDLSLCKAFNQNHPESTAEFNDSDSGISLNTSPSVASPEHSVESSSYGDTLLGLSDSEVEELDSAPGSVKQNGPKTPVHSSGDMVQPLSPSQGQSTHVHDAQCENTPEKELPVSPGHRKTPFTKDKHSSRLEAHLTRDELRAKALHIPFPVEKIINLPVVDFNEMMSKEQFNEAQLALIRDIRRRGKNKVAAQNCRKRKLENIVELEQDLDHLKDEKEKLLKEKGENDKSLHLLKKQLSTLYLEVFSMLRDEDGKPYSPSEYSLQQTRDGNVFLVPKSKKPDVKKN
Chain of Human recombinant Keap1 proteins (Q14145 whole entry): as the sequence (Q14145 whole entry) above

With `CC1(C)CCC2(C(=O)NO)CCC3(C)C(C(=O)C=C4C5(C)C=C(C#N)C(=O)C(C)(C)C5CCC43C)C2C1` (stereo not drawn) [Cpd.51], in the data set with primary cortical neurons, the “efficacy in OGD/R-induced primary neuronal damage” value is “excellent efficacy”. The compound also had a pIC50 with SH-SY5Y cells of 5.70. Besides, the “metabolic stability in microsomes” value in data set [1] was “moderate metabolic stability”. Further, the pKd in data set [2] is 4.50; in data set [3], 4.27. For the same compound, the pEC50 in data set [4] (HEK-293T, cells transfected with NC-OE control plasmid) is 7.25; in data set [4] (Hek-293T cells, 12 h after drug treatment) it was 7.32. In addition, the “direct DHRS3-Nrf2 binding (GST pull-down)” value on DHRS3-Nrf2 interaction is listed as “significantly reduced”. Further, the Nrf2 nuclear translocation entry on Nrf2 is given as “Nrf2 nuclear translocation within 15 min”.
